Reference: the supplement of paper PMC10733146

Assays:
Test in all cases: viability relative to DMSO control (fraction); higher = less drug effect (more viable cells)
[1] = tested on: primary AML patient cells (S019); details: 48 h
Summary of the method: (§1)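 Using 384-well plates with compounds already plated at five concentrations, one well per concentration, 4 × 10^4 primary mononuclear tumour cells were added per well. Cells were Ficoll-isolated from blood or bone marrow or came from processed lymph node, fresh or cryopreserved. They were kept for 48 h at 37 °C and 5% CO2 in RPMI-1640 supplemented with penicillin/streptomycin, L-glutamine and human serum, and viability was read as CellTiter-Glo luminescence relative to the median of 16 inner DMSO wells.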

[2] = tested on: primary MCL patient cells (S041); details: 48 h
Summary of the method: as §1

[3] = tested on: primary CLL patient cells (S031); details: 48 h
Summary of the method: as §1

[4] = tested on: primary AML patient cells (S007); details: 48 h
Summary of the method: as §1

[5] = tested on: primary AML patient cells (S027); details: 0.0016 µM; 48 h
Summary of the method: as §1

[6] = tested on: primary DLBCL patient cells (S082); details: 48 h
Summary of the method: as §1

[7] = tested on: primary AML patient cells (S091); details: 48 h
Summary of the method: as §1

[8] = tested on: primary AML patient cells (S085); details: 48 h
Summary of the method: as §1

[9] = tested on: primary AML patient cells (S037); details: 48 h
Summary of the method: as §1

[10] = tested on: primary T-NHL patient cells (S058); details: 48 h
Summary of the method: as §1

[11] = tested on: primary AML patient cells (S089); details: 48 h
Summary of the method: as §1

[12] = tested on: primary AML patient cells (S060); details: 48 h
Summary of the method: as §1

[13] = tested on: primary B-PLL patient cells (S016); details: 48 h
Summary of the method: as §1

[14] = tested on: primary AML patient cells (S071); details: 48 h
Summary of the method: as §1

[15] = tested on: primary DLBCL patient cells (S049); details: 48 h
Summary of the method: as §1

[16] = tested on: primary ALL patient cells (S088); details: 48 h
Summary of the method: as §1

[17] = tested on: primary DLBCL patient cells (S076); details: 48 h
Summary of the method: as §1

[18] = tested on: primary AML patient cells (S011); details: 48 h
Summary of the method: as §1

[19] = tested on: primary FL patient cells (S087); details: 48 h
Summary of the method: as §1

`Cc1nc(Nc2ncc(C(=O)Nc3c(C)cccc3Cl)s2)cc(N2CCN(CCO)CC2)n1` [Dasatinib] was tested. Which viability ([1]; 0.0016 µM) did it give?
The viability was 1.14.

What about the viability ([1]; 0.008 µM) of the same molecule?
The viability was 1.14.

What about the viability ([1]; 0.04 µM) of the same molecule?
Its viability is 1.07.

What about the viability ([1]; 0.2 µM) of the same molecule?
The viability was 0.986.

What about the viability ([1]; 1 µM) of the same molecule?
Its viability is 1.02.

What about the viability ([2]; 0.0016 µM) of the same molecule?
Its viability is 0.903.

And the viability ([2]; 0.008 µM)?
The viability was 0.79.

And the viability ([2]; 0.04 µM)?
The viability was 0.723.

What about the viability ([2]; 0.2 µM) of the same molecule?
Its viability is 0.67.

What about the viability ([2]; 1 µM) of the same molecule?
Its viability is 0.6.

What about the viability ([3]; 0.0016 µM) of the same molecule?
Its viability is 0.944.

And the viability ([3]; 0.008 µM)?
The viability was 0.609.

And the viability ([3]; 0.04 µM)?
Its viability is 0.393.

What about the viability ([3]; 0.2 µM) of the same molecule?
Its viability is 0.325.

What about the viability ([3]; 1 µM) of the same molecule?
The viability was 0.313.

What about the viability ([4]; 0.0016 µM) of the same molecule?
The viability was 0.89.

What about the viability ([4]; 0.008 µM) of the same molecule?
The viability was 0.964.

And the viability ([4]; 0.04 µM)?
The viability was 0.917.

And the viability ([4]; 0.2 µM)?
Its viability is 0.837.

What about the viability ([4]; 1 µM) of the same molecule?
Its viability is 0.755.

What about the viability [5] of the same molecule?
Its viability is 1.06.

What about the viability ([6]; 0.0016 µM) of the same molecule?
The viability was 0.966.

And the viability ([6]; 0.008 µM)?
Its viability is 0.847.

What about the viability ([6]; 0.04 µM) of the same molecule?
The viability was 0.643.

And the viability ([6]; 0.2 µM)?
The viability was 0.298.

What about the viability ([6]; 1 µM) of the same molecule?
Its viability is 0.0983.

And the viability ([7]; 0.0016 µM)?
Its viability is 0.951.

And the viability ([7]; 0.008 µM)?
Its viability is 0.924.

What about the viability ([7]; 0.04 µM) of the same molecule?
Its viability is 0.787.

And the viability ([7]; 0.2 µM)?
Its viability is 0.784.

And the viability ([7]; 1 µM)?
The viability was 1.29.

What about the viability ([8]; 0.0016 µM) of the same molecule?
The viability was 0.943.

What about the viability ([8]; 0.008 µM) of the same molecule?
The viability was 0.736.

And the viability ([8]; 0.04 µM)?
Its viability is 0.691.

What about the viability ([8]; 0.2 µM) of the same molecule?
The viability was 0.605.

What about the viability ([8]; 1 µM) of the same molecule?
The viability was 0.91.

What about the viability ([9]; 0.0016 µM) of the same molecule?
Its viability is 1.04.

And the viability ([9]; 0.008 µM)?
The viability was 1.01.

What about the viability ([9]; 0.04 µM) of the same molecule?
Its viability is 1.

And the viability ([9]; 0.2 µM)?
Its viability is 0.982.

What about the viability ([9]; 1 µM) of the same molecule?
The viability was 1.03.

And the viability ([10]; 0.0016 µM)?
The viability was 0.962.

And the viability ([10]; 0.008 µM)?
The viability was 0.836.

And the viability ([10]; 0.04 µM)?
Its viability is 0.861.

And the viability ([10]; 0.2 µM)?
Its viability is 0.834.

And the viability ([10]; 1 µM)?
Its viability is 0.855.

What about the viability ([11]; 0.0016 µM) of the same molecule?
Its viability is 0.976.

What about the viability ([11]; 0.008 µM) of the same molecule?
Its viability is 1.03.

What about the viability ([11]; 0.04 µM) of the same molecule?
Its viability is 0.576.

And the viability ([11]; 0.2 µM)?
Its viability is 0.504.

And the viability ([11]; 1 µM)?
Its viability is 0.537.

What about the viability ([12]; 0.0016 µM) of the same molecule?
The viability was 1.02.

And the viability ([12]; 0.008 µM)?
Its viability is 1.03.

And the viability ([12]; 0.04 µM)?
The viability was 0.901.

What about the viability ([12]; 0.2 µM) of the same molecule?
Its viability is 0.891.

What about the viability ([12]; 1 µM) of the same molecule?
Its viability is 0.638.

And the viability ([13]; 0.0016 µM)?
Its viability is 0.693.

And the viability ([13]; 0.008 µM)?
The viability was 0.45.

And the viability ([13]; 0.04 µM)?
The viability was 0.397.

What about the viability ([13]; 0.2 µM) of the same molecule?
Its viability is 0.368.

What about the viability ([13]; 1 µM) of the same molecule?
The viability was 0.445.

And the viability ([14]; 0.0016 µM)?
Its viability is 1.04.

And the viability ([14]; 0.008 µM)?
Its viability is 1.05.

What about the viability ([14]; 0.04 µM) of the same molecule?
The viability was 1.

And the viability ([14]; 0.2 µM)?
Its viability is 0.948.

What about the viability ([14]; 1 µM) of the same molecule?
The viability was 0.951.

And the viability ([15]; 0.0016 µM)?
The viability was 0.952.

What about the viability ([15]; 0.008 µM) of the same molecule?
The viability was 0.83.

What about the viability ([15]; 0.04 µM) of the same molecule?
Its viability is 0.814.

And the viability ([15]; 0.2 µM)?
Its viability is 0.497.

And the viability ([15]; 1 µM)?
The viability was 0.33.

What about the viability ([16]; 0.0016 µM) of the same molecule?
The viability was 0.899.

And the viability ([16]; 0.008 µM)?
Its viability is 0.709.

And the viability ([16]; 0.04 µM)?
The viability was 0.62.

And the viability ([16]; 0.2 µM)?
The viability was 0.545.

And the viability ([16]; 1 µM)?
Its viability is 0.631.

What about the viability ([17]; 0.0016 µM) of the same molecule?
Its viability is 0.835.

What about the viability ([17]; 0.008 µM) of the same molecule?
Its viability is 0.672.

And the viability ([17]; 0.04 µM)?
The viability was 0.628.

And the viability ([17]; 0.2 µM)?
The viability was 0.532.

What about the viability ([17]; 1 µM) of the same molecule?
The viability was 0.535.

What about the viability ([18]; 0.0016 µM) of the same molecule?
Its viability is 1.06.

What about the viability ([18]; 0.008 µM) of the same molecule?
Its viability is 0.884.

What about the viability ([18]; 0.04 µM) of the same molecule?
Its viability is 0.909.

What about the viability ([18]; 0.2 µM) of the same molecule?
Its viability is 0.882.

What about the viability ([18]; 1 µM) of the same molecule?
Its viability is 0.936.

What about the viability ([19]; 0.0016 µM) of the same molecule?
Its viability is 0.914.

And the viability ([19]; 0.008 µM)?
The viability was 0.782.

What about the viability ([19]; 0.04 µM) of the same molecule?
Its viability is 0.747.

And the viability ([19]; 0.2 µM)?
The viability was 0.753.

And the viability ([19]; 1 µM)?
Its viability is 0.742.
